# From the supplement of paper PMC10307832
# Experiments:
# Test in all cases: relative viability (nuclei count vs DMSO), 5 days (fraction); higher = more cells survive
# [1] = compound: COC1=CC=C(C=C1)CN2C=CC3=C2C=C(C=C3)C(=O)NO
# In short: (§1)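 Viability was defined as treated-well nuclei divided by vehicle-well nuclei, with the median taken over replicate plates. Cells from lung cancer lines sat overnight at 37 °C in 1536-well plates, received five √10-spaced library-drug doses by pinning on vehicle-anchored plates, and grew 5 days without medium change before one-step fixation, permeabilisation and Hoechst staining, 4× imaging and MetaXpress nuclear counts. Only plates with control CV under 25% and at least one doubling were kept.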
# Veliparib = compound: C[C@]1(c2nc3c(C(N)=O)cccc3[nH]2)CCCN1 [Veliparib]
# In short: as §1
# [2] = compound: COC1=CC=C(C=C1)CN2C=CC3=C2C=C(C=C3)C(=O)NO + COc1cccc2cc(-c3nc([C@H]4CC[C@H](C(=O)O)CC4)n4ncnc(N)c34)[nH]c12 [OSI-027] (partner 0.5 µM)
# In short: (§2)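 Values are medians from duplicate plates. Each reflects relative viability, defined as the nuclei count of treated wells over that of vehicle wells. Lung cancer cell lines in 1536-well plates were pin-tool dosed one day after seeding with one drug alone or with a fixed anchor-drug dose plus five library-drug doses (not always all listed) in √10 steps, then fixed, stained and imaged at 4× after 5 days.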
# Veliparib + Pemetrexed = compound: C[C@]1(c2nc3c(C(N)=O)cccc3[nH]2)CCCN1 [Veliparib] + Nc1nc2[nH]cc(CCc3ccc(C(=O)N[C@@H](CCC(=O)O)C(=O)O)cc3)c2c(=O)[nH]1 [Pemetrexed] (partner 0.2 µM)
# In short: as §2
Cell Line,relative viability ([1]; 0.08 µM),relative viability ([1]; 0.253 µM),relative viability ([1]; 0.8 µM),relative viability ([1]; 2.53 µM),relative viability ([1]; 8 µM),relative viability (Veliparib; 0.02 µM),relative viability (Veliparib; 0.06325 µM),relative viability (Veliparib; 0.2 µM),relative viability (Veliparib; 0.6325 µM),relative viability (Veliparib; 2 µM),relative viability ([2]; first compound 0.08 µM),relative viability ([2]; first compound 0.253 µM),relative viability ([2]; first compound 0.8 µM),relative viability ([2]; first compound 2.53 µM),relative viability ([2]; first compound 8 µM),relative viability (Veliparib + Pemetrexed; first compound 0.02 µM),relative viability (Veliparib + Pemetrexed; first compound 0.06325 µM),relative viability (Veliparib + Pemetrexed; first compound 0.2 µM),relative viability (Veliparib + Pemetrexed; first compound 0.6325 µM),relative viability (Veliparib + Pemetrexed; first compound 2 µM)
NCI-H441,0.997,1.03,1.18,1.04,0.867,1.09,0.967,0.982,0.772,0.884,0.715,0.709,0.644,0.621,0.459,0.292,0.265,0.3,0.254,0.289
NCI-H460,0.902,1,0.994,0.992,0.968,0.93,0.952,0.967,0.931,0.964,0.547,0.721,0.664,0.607,0.595,0.0617,0.0618,0.0599,0.0593,0.0663
NCI-H520,0.708,1.04,1.03,1.04,0.97,0.977,0.975,0.97,0.87,0.993,0.218,0.278,0.329,0.319,0.279,0.877,0.657,0.904,0.637,0.674
NCI-H522,–,0.946,0.968,0.869,0.793,0.947,0.958,0.912,1.07,1.04,–,0.611,0.746,0.733,0.718,0.981,0.814,0.761,1.16,0.785
NCI-H596,0.962,1.1,1.08,0.989,0.947,0.932,0.933,0.966,0.93,0.908,0.79,0.779,0.768,0.721,0.598,0.475,0.451,0.463,0.509,0.474
NCI-H647,0.754,0.909,1.02,0.989,0.869,1.02,0.945,1.03,0.813,1.03,0.531,0.752,0.49,0.634,0.492,0.167,0.188,0.192,0.175,0.216
NCI-H650,0.903,0.834,0.888,0.949,0.891,0.765,0.799,0.834,0.783,0.731,0.524,0.494,0.52,0.526,0.438,0.992,0.895,0.868,0.822,0.961
NCI-H661,–,0.981,0.96,0.958,0.892,0.963,0.918,0.945,0.929,1,–,0.78,0.727,0.658,0.625,0.973,0.897,0.918,0.865,0.901
NCI-H838,–,1.01,0.964,0.98,0.871,1.05,0.909,0.974,0.9,1.02,–,0.361,0.41,0.395,0.398,0.262,0.255,0.244,0.269,0.269
NCI-H1355,0.814,0.996,0.987,0.995,0.874,–,0.835,1.03,0.943,0.944,–,0.409,0.463,0.457,0.38,0.874,0.998,1.01,0.962,1
NCI-H1395,0.752,0.915,0.877,0.963,0.753,0.594,0.655,0.791,0.817,0.692,0.562,0.579,0.628,0.667,0.549,0.762,0.886,0.768,0.792,0.653
NCI-H1437,0.912,0.978,1.05,1.06,1.05,0.815,0.958,0.971,0.972,0.963,0.774,0.907,0.897,0.807,0.907,0.31,0.276,0.325,0.356,0.34
NCI-H1563,0.843,1.09,0.955,0.968,0.908,0.851,0.953,0.956,0.966,1.05,0.626,0.812,0.739,0.724,0.712,0.694,0.766,0.742,0.728,0.685
NCI-H1648,1,0.875,1.01,0.991,0.735,1.08,0.94,0.738,0.944,0.81,0.246,0.245,0.246,0.262,0.246,1,–,–,1.02,0.709
NCI-H1650,0.787,0.87,1.01,0.946,0.689,–,0.846,1.01,0.875,0.874,0.586,0.682,0.714,0.568,0.542,0.388,0.332,0.373,0.331,0.362
NCI-H1651,0.918,0.963,0.969,0.91,0.926,0.977,0.906,0.96,0.882,0.915,0.682,0.764,0.758,0.622,0.627,0.55,0.65,0.578,0.537,0.563

Cell Line,relative viability ([1]; 0.08 µM),relative viability ([1]; 0.253 µM),relative viability ([1]; 0.8 µM),relative viability ([1]; 2.53 µM),relative viability ([1]; 8 µM),relative viability (Veliparib; 0.02 µM),relative viability (Veliparib; 0.06325 µM),relative viability (Veliparib; 0.2 µM),relative viability (Veliparib; 0.6325 µM),relative viability (Veliparib; 2 µM),relative viability ([2]; first compound 0.08 µM),relative viability ([2]; first compound 0.253 µM),relative viability ([2]; first compound 0.8 µM),relative viability ([2]; first compound 2.53 µM),relative viability ([2]; first compound 8 µM),relative viability (Veliparib + Pemetrexed; first compound 0.02 µM),relative viability (Veliparib + Pemetrexed; first compound 0.06325 µM),relative viability (Veliparib + Pemetrexed; first compound 0.2 µM),relative viability (Veliparib + Pemetrexed; first compound 0.6325 µM),relative viability (Veliparib + Pemetrexed; first compound 2 µM)
NCI-H1666,0.891,0.99,1.09,1.03,1.03,0.943,0.976,0.981,0.876,0.937,0.818,0.906,0.873,0.946,0.85,0.866,0.782,0.879,0.866,0.898
NCI-H1734,–,0.957,1.16,1.02,0.73,0.82,0.857,0.957,0.858,0.997,–,0.641,0.558,0.608,0.527,–,0.396,0.398,0.389,0.392
NCI-H1755,0.869,1.03,0.965,0.993,0.973,1.02,0.957,1.02,0.913,0.963,0.632,0.746,0.732,0.732,0.708,0.405,0.43,0.397,0.392,0.444
NCI-H1792,0.952,0.883,0.99,0.766,0.795,0.825,0.694,0.943,0.966,0.718,0.722,0.811,0.745,0.802,0.616,0.724,0.503,0.653,0.786,0.66
NCI-H1793,–,1,1.02,1.03,1.01,0.881,0.923,0.904,0.865,0.932,–,0.296,0.267,0.328,0.248,0.755,0.763,0.935,1.07,0.875
NCI-H1915,0.888,0.992,1.02,0.982,0.881,0.949,0.881,0.786,0.9,0.928,0.564,0.656,0.643,0.599,0.532,0.532,0.463,0.537,0.491,0.487
NCI-H1944,–,0.986,0.987,0.947,0.955,0.878,0.961,0.765,0.789,0.894,–,0.427,0.401,0.407,0.375,0.596,0.695,0.547,0.607,0.615
NCI-H1975,0.862,0.976,0.923,0.979,0.872,1.03,0.876,0.903,0.884,0.861,0.724,0.703,0.742,0.723,0.638,0.292,0.332,0.295,0.292,0.311
NCI-H1993,0.932,0.9,1.06,0.969,0.888,0.693,0.883,0.87,1.05,0.929,0.525,0.626,0.53,0.571,0.521,–,0.708,0.616,0.632,0.627
NCI-H2009,0.926,0.978,1.01,0.993,0.913,0.918,0.922,0.972,0.931,1.1,0.647,0.714,0.619,0.618,0.491,1.09,0.952,0.957,0.978,1.07
NCI-H2023,0.908,1.02,1.02,0.949,0.87,0.853,0.939,0.919,0.85,0.928,0.369,0.406,0.418,0.372,0.344,–,0.212,0.27,0.221,0.231
NCI-H2085,1.01,0.991,1.04,0.996,0.968,0.851,0.999,0.983,0.922,1.01,0.888,0.754,0.746,0.982,0.731,0.58,0.952,0.911,0.875,0.802
NCI-H2087,0.913,1,1.19,0.935,0.85,0.854,0.97,0.936,0.955,1.05,0.626,0.632,0.592,0.561,0.347,0.715,0.601,0.639,0.622,0.635
NCI-H2126,0.99,1.03,1.03,1.02,0.942,0.986,0.926,0.984,0.985,0.999,0.685,0.775,0.696,0.797,0.743,0.716,0.732,0.71,0.647,0.675
NCI-H2170,0.973,0.994,0.977,0.98,0.906,0.989,0.954,0.967,0.96,0.991,0.708,0.725,0.8,0.81,0.609,0.256,0.244,0.253,0.237,0.273
NCI-H2228,1.06,1.05,0.996,1.07,0.851,0.909,1.08,1.15,0.954,0.932,–,0.536,0.594,0.729,0.473,0.336,0.375,0.398,0.331,0.313
